Experiments:
[1] = tested on: c-MYC G-quadruplex DNA (DNA, G4) GGGGAGGGTGGGGAGGGTGGGG; experiment: fluorescence titration (ligand fluorescence, Hill fit); details: K+ (100 mM Tris-KCl), pH 7.4, 25 °C, 1 μM ligand titrated with DNA
[2] = tested on: dsDNA (control duplex DNA) (DNA, duplex) CAAAAATTTTTGCAAAAATTTTTG; experiment: as above; details: K+ (100 mM Tris-KCl), pH 7.4, 25 °C, 1 μM ligand titrated with DNA
[3] = tested on: c-MYC G-quadruplex DNA, dual labelled (FRET) (DNA, G4) GGGGAGGGTGGGGAGGGTGGGG; experiment: FRET melting; details: K+ (60 mM potassium cacodylate), pH 7.4, 100 nM DNA, 1 μM compound
[4] = tested on: dsDNA, dual labelled (FRET) (DNA, duplex) CAAAAATTTTTGCAAAAATTTTTG; experiment: FRET melting; details: K+ (60 mM potassium cacodylate), pH 7.4, 100 nM DNA, 1 μM compound

KD [1] | KD [2] | ΔTm [3] | ΔTm [4] | SMILES
510 ± 50 nM | > 25000 nM | 11.14±0.28 °C | 1.61±0.12 °C | CN(C)CCCNC(=O)c1ccc(-n2c3ccccc3c3cc(-c4cn(-c5ccc(N)cc5)nn4)ccc32)cc1
1130 ± 30 nM | 880 ± 20 nM | 8.17±0.41 °C | 8.41±0.21 °C | CN(C)CCCNC(=O)c1ccc(-n2c3ccccc3c3cc(-c4cn(CCCN(C)C)nn4)ccc32)cc1
170 ± 10 nM | > 30000 nM | 19.3±0.96 °C | 0.86±0.04 °C | CN(C)CCCNC(=O)c1ccc(-n2cc(-c3ccc4c(c3)c3ccccc3n4-c3ccc(C(=O)NCCCN(C)C)cc3)nn2)cc1

Source: paper PMC5519986 (2017)
